Experimental data published in ChEMBL document CHEMBL2029208 (Bioorg Med Chem, 2012).
Values after ≈ are worked out from the molar mass of the structure shown.

What was measured:
[1] = test system: Mycobacterium tuberculosis; assay: microbe, parasite or virus in culture; assay type: functional; conditions: H37Ra
[2] = target: T1, Bifunctional epoxide hydrolase 2 (Homo sapiens, UniProt P34913);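 also: recombinant enzyme with CMNPC substrate, fluorescence readout of 6-methoxy-2-naphthaldehyde formed over a 10 min reaction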
T1 sequence (P34913 whole entry): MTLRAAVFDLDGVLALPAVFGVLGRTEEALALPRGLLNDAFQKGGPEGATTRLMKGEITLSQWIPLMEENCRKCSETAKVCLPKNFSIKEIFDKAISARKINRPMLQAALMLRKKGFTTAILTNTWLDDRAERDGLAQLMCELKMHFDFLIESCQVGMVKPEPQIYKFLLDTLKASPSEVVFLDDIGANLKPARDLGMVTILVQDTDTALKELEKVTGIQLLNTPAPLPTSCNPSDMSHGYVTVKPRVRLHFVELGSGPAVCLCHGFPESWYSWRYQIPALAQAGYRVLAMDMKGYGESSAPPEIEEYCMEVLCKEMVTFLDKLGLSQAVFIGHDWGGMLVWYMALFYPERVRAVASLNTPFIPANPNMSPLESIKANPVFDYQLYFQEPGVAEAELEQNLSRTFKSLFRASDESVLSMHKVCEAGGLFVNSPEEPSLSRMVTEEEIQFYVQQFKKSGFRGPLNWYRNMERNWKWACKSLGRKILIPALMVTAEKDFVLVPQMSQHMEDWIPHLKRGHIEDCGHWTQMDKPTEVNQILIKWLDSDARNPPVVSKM

Question: `O=C(Nc1cccc(C(=O)OCc2ccccc2)c1)NC12CC3CC(CC(C3)C1)C2` was tested. Which MIC [1] did it give?
Answer: 0.3 mg/L (≈ 0.742 µM)

Question: For `COC(=O)c1ccc(NC(=O)N[C@H]2CC[C@@H](Oc3cc(C(=O)OC)cc(C(=O)OC)c3)CC2)cc1`, which MIC [1] is on record?
Answer: 3.03 mg/L (≈ 6.25 µM)

Question: And the IC50 [2]?
Answer: 3.8 nM

Question: Which results are given for `O=C(Nc1cccc(C(F)(F)F)c1)NC1CCCCC1`?
Answer: MIC [1]: 1.79 mg/L (≈ 6.25 µM); IC50 [2]: 8.7 nM

Question: For `CCOCCOCCOc1ccc(NC(=O)NC23CC4CC(CC(C4)C2)C3)cc1`, which MIC [1] is on record?
Answer: 10 mg/L (≈ 24.8 µM)

Question: What does the source list for `O=C(Nc1ccc(OCCN2CCOCC2)cc1Cl)NC12CC3CC(CC(C3)C1)C2`?
Answer: MIC [1]: > 87 mg/L; IC50 [2]: 2.4 nM

Question: Which MIC [1] does the source give for `CCCCCCCCCCCC(=O)NC12CC3CC(CC(C3)C1)C2` here?
Answer: 4.17 mg/L (≈ 12.5 µM)

Question: What about the IC50 [2] of the same compound?
Answer: 159 nM

Question: For `COc1ccc(NC(=O)NC23CC4CC(CC(C4)C2)C3)cc1O`, which MIC [1] is on record?
Answer: 32 mg/L (≈ 101 µM)

Question: Which MIC [1] does the source give for `O=C(Nc1ccccc1OCCCCN1CCOCC1)NC12CC3CC(CC(C3)C1)C2` here?
Answer: 21 mg/L (≈ 49.1 µM)

Question: For `O=C(Nc1cccc(OCCCCN2CCOCC2)c1)NC12CC3CC(CC(C3)C1)C2`, which MIC [1] is on record?
Answer: 21 mg/L (≈ 49.1 µM)

Question: How did the MIC [1] turn out when `O=C(Nc1cccc(OCCCN2CCOCC2)c1)NC12CC3CC(CC(C3)C1)C2` was run?
Answer: 32 mg/L (≈ 77.4 µM)

Question: How did the MIC [1] turn out when `O=C(NCC#CCOc1ccc(F)cc1)NC12CC3CC(CC(C3)C1)C2` was run?
Answer: 0.7 mg/L (≈ 1.96 µM)

Question: With `O=C(Nc1cccc([N+](=O)[O-])c1)N[C@H]1CC[C@H](OCc2c(F)cccc2F)CC1` as the compound, how does the MIC [1] read?
Answer: 10.1 mg/L (≈ 25 µM)

Question: And the IC50 [2]?
Answer: 90 nM

Question: Which MIC [1] does the source give for `O=C(Nc1ccc(Oc2ccc(F)cc2)cc1)NC12CC3CC(CC(C3)C1)C2` here?
Answer: 0.6 mg/L (≈ 1.58 µM)

Question: With `O=C(Nc1cccc(C(=O)Nc2ccc(N3CCOCC3)cc2)c1)NC12CC3CC(CC(C3)C1)C2` as the compound, how does the MIC [1] read?
Answer: > 95 mg/L

Question: And the IC50 [2]?
Answer: 74.2 nM

Question: How did the MIC [1] turn out when `CC(C)c1ccc(NC(=O)NC2CCCCC2)cc1` was run?
Answer: 3.25 mg/L (≈ 12.5 µM)

Question: `CCOCCOCCOCCCCCCNC(=O)NC12CC3CC(CC(C3)C1)C2` was tested. Which MIC [1] did it give?
Answer: 82 mg/L (≈ 200 µM)

Question: And the IC50 [2]?
Answer: 1.2 nM

Question: With `O=C(NC12CC3CC(CC(C3)C1)C2)N[C@H]1CC[C@H](OCc2ccc(Br)cc2)CC1` as the compound, how does the MIC [1] read?
Answer: > 92 mg/L

Question: Which MIC [1] does the source give for `O=C(CCCCCCOCc1ccccc1)NC12CC3CC(CC(C3)C1)C2` here?
Answer: 9.24 mg/L (≈ 25 µM)

Question: What about the IC50 [2] of the same compound?
Answer: 66.5 nM

Question: Which MIC [1] does the source give for `O=C(Nc1ccccc1)NC12CC3CC(CC(C3)C1)C2` here?
Answer: 14 mg/L (≈ 51.8 µM)

Question: What does the source list for `COc1cc(NC(=O)NC23CC4CC(CC(C4)C2)C3)cc(C(F)(F)F)c1`?
Answer: MIC [1]: 0.58 mg/L (≈ 1.57 µM); IC50 [2]: 1.7 nM

Question: For `O=C(NN1CCOCC1)NC12CC3CC(CC(C3)C1)C2`, which MIC [1] is on record?
Answer: > 56 mg/L

Question: What about the IC50 [2] of the same compound?
Answer: 12800 nM

Question: Which MIC [1] does the source give for `CC(=O)c1cccc(NC(=O)NC23CC4CC(CC(C4)C2)C3)c1` here?
Answer: 3.9 mg/L (≈ 12.5 µM)

Question: What about the IC50 [2] of the same compound?
Answer: 1.3 nM

Question: With `CCOCCOCCOc1cccc(NC(=O)NC23CC4CC(CC(C4)C2)C3)c1` as the compound, how does the MIC [1] read?
Answer: 2.52 mg/L (≈ 6.26 µM)

Question: How did the MIC [1] turn out when `CC(C)Oc1cc(F)c(CO[C@H]2CC[C@@H](NC(=O)NC34CC5CC(CC(C5)C3)C4)CC2)c(F)c1` was run?
Answer: 6.7 mg/L (≈ 14.1 µM)

Question: For `COC(=O)c1cc(NC(=O)NC23CC4CC(CC(C4)C2)C3)ccc1O`, which MIC [1] is on record?
Answer: 1.1 mg/L (≈ 3.19 µM)

Question: Which results are given for `O=C(Nc1ccc(OC(F)(F)F)cc1)NC1CCCCC1`?
Answer: MIC [1]: 0.94 mg/L (≈ 3.11 µM); IC50 [2]: 0.8 nM

Question: What does the source list for `CSc1ccc(NC(=O)NC23CC4CC(CC(C4)C2)C3)cc1`?
Answer: MIC [1]: 1.5 mg/L (≈ 4.74 µM); IC50 [2]: 1.6 nM

Question: What does the source list for `O=C(Nc1cccc(C(=O)c2ccccc2)c1)NC12CC3CC(CC(C3)C1)C2`?
Answer: MIC [1]: 4.68 mg/L (≈ 12.5 µM); IC50 [2]: 2.7 nM

Question: How did the MIC [1] turn out when `CN1CCN(CCCCOc2cccc(NC(=O)NC34CC5CC(CC(C5)C3)C4)c2)CC1` was run?
Answer: 44 mg/L (≈ 99.9 µM)

Question: `COC(=O)c1cccc(NC(=O)NC23CC4CC(CC(C4)C2)C3)c1` was tested. Which MIC [1] did it give?
Answer: 1.2 mg/L (≈ 3.65 µM)

Question: For `CN1CCN(CCCOc2ccc(NC(=O)NC34CC5CC(CC(C5)C3)C4)cc2)CC1`, which MIC [1] is on record?
Answer: 62 mg/L (≈ 145 µM)

Question: How did the MIC [1] turn out when `O=C(NC12CC3CC(CC(C3)C1)C2)N[C@H]1CC[C@H](Oc2cccc(F)c2)CC1` was run?
Answer: 14 mg/L (≈ 36.2 µM)

Question: `O=C(Nc1ccc(C(=O)c2ccccc2)cc1)NC12CC3CC(CC(C3)C1)C2` was tested. Which MIC [1] did it give?
Answer: 1.8 mg/L (≈ 4.81 µM)

Question: What about the IC50 [2] of the same compound?
Answer: 1.6 nM

Question: How did the MIC [1] turn out when `CC(C)(C)OC(=O)N1CCN(CCCOc2ccc(NC(=O)NC34CC5CC(CC(C5)C3)C4)cc2)CC1` was run?
Answer: 6.21 mg/L (≈ 12.1 µM)

Question: How did the MIC [1] turn out when `O=C(NCCCCCOCCOCCOCc1ccccc1)NC12CC3CC(CC(C3)C1)C2` was run?
Answer: 46 mg/L (≈ 100 µM)

Question: What about the IC50 [2] of the same compound?
Answer: 10.8 nM

Question: What does the source list for `O=C(NC12CC3CC(CC(C3)C1)C2)N[C@H]1CC[C@@H](OC2CCCCC2)CC1`?
Answer: MIC [1]: > 75 mg/L; IC50 [2]: 1.6 nM

Question: Which MIC [1] does the source give for `Cc1cccc(NC(=O)NC23CC4CC(CC(C4)C2)C3)c1` here?
Answer: 1.1 mg/L (≈ 3.87 µM)

Question: And the IC50 [2]?
Answer: 6.1 nM

Question: For `CC(=O)c1ccccc1NC(=O)NC12CC3CC(CC(C3)C1)C2`, which MIC [1] is on record?
Answer: > 3.1 mg/L

Question: For `CCOC(=O)C(C)Oc1ccc(NC(=O)NC23CC4CC(CC(C4)C2)C3)cc1` (configuration not stated), which MIC [1] is on record?
Answer: 19 mg/L (≈ 49.2 µM)

Question: How did the MIC [1] turn out when `CC(C)(C)c1ccc(NC(=O)NC2CCCCC2)cc1` was run?
Answer: 1.72 mg/L (≈ 6.27 µM)

Question: And the IC50 [2]?
Answer: 3.9 nM

Question: With `O=C(Nc1cccc(Oc2ccccc2)c1)NC12CC3CC(CC(C3)C1)C2` as the compound, how does the MIC [1] read?
Answer: 2.27 mg/L (≈ 6.26 µM)

Question: And the IC50 [2]?
Answer: 0.9 nM

Question: How did the MIC [1] turn out when `O=C(Nc1ccc(OCCN2CCOCC2)c(Cl)c1)NC12CC3CC(CC(C3)C1)C2` was run?
Answer: 27 mg/L (≈ 62.2 µM)

Question: And the IC50 [2]?
Answer: 0.6 nM

Question: With `CCOC(=O)COc1ccc(NC(=O)NC23CC4CC(CC(C4)C2)C3)cc1` as the compound, how does the MIC [1] read?
Answer: 4.7 mg/L (≈ 12.6 µM)

Question: And the IC50 [2]?
Answer: 0.8 nM

Question: What does the source list for `O=C(NC12CC3CC(CC(C3)C1)C2)N[C@H]1CC[C@@H](Oc2ccc(C(F)(F)F)cn2)CC1`?
Answer: MIC [1]: 1.37 mg/L (≈ 3.13 µM); IC50 [2]: 1.8 nM
